Entries after “also recorded” stand apart in the source; their conditions may differ.
Experiments:
[1] = test system: full-length APP and APP C-terminal fragments, Neuro2a-APPsw cells; test: Western blot analysis of APP processing in neuro2a cells expressing APPsw; assay type: cell-based, mouse
Description: FIG. 13. depicts an analysis of APP processing after Rk1 treatment. Steady-state levels of full-length APP and APP C-terminal fragments (APP-CTFs) were examined by Western blot analysis using anti-R1 antibody. […] Correlated Aβ42 levels for each sample are shown in the bottom panel.

[2] = target: T1, γ-secretase cleavage of Notch1 (NICD) (Homo sapiens, UniProt P49768); test: Cell-free generation of NICD from membrane fractions of 293 cells overexpressing Notch-AE; assay type: biochemical
T1 construct: Membrane fractions isolated from 293 cells overexpressing either APP (A), Notch-AE (B) or p75-AE (C); endogenous in cells; host or cells: 293 cells (membrane fractions); only the substrates APP, Notch-ΔE and p75-ΔE are overexpressed
Procedure: Membrane fractions isolated from 293 cells overexpressing either APP (A), Notch-AE (B) or p75-AE (C) and incubated in the presence of indicated compounds: Compound E (CpdE, general γ-secretase inhibitor), Rgk351, Rk1 and sulindac sulfide (SS).

[3] = test system: Aβ40 and Aβ42 production, CHO cells stably transfected with human APP695; test: Secreted Aβ40/Aβ42 ELISA in CHO cells expressing human APP (CHO-APP cells); assay type: cell-based, Chinese hamster; set-up: key to Aβ42-lowering activity: Aβ42-lowering activity (“Yes”); no profound effects (“No”); non-determined (“ND”); Ginsenosides that affected cell viability are indicated as “Cytotoxic.”
Procedure: The CHO cells were treated with the indicated compounds (at 50 μg/ml) for 8 hrs. Aβ42 levels in the medium were measured by ELISA and normalized to intracellular full-length APP.
The potential effects of ginsenosides and their analogues in treating AD were examined. First, a number of ginsenosides were screened based on their effects on Aβ generation. The effects of various ginsenosides on Aβ (e.g., Aβ40 and Aβ42) production was initially accessed by incubating the Chinese hamster ovary (CHO) cells expressing human APP(CHO-APP cells) with each ginsenoside purified from unprocessed ginseng (known as “white ginseng”). These representative ginsenosides included Rb1, Rb2, Rc, Rd, Re, Re, Rg1 and Rg2 and differ in their side chains and sugar moieties.
After 8 hours of incubation, the media were collected and the levels of secreted Aβ40 and Aβ42 were determined by ELISA.

`C=C(CCC=C(C)C)[C@H]1CC[C@]2(C)[C@@H]1[C@H](O)C[C@@H]1[C@@]3(C)CC[C@H](O[C@@H]4O[C@H](CO)[C@@H](O)[C@H](O)[C@H]4O[C@@H]4O[C@H](CO)[C@@H](O)[C@H](O)[C@H]4O)C(C)(C)[C@@H]3CC[C@]12C` [Rk1] was tested, and the “full-length APP levels” value ([1]; Neuro2a-APPsw cells) was “did not affect”, the “APP C-terminal fragments, steady-state levels” value ([1]; neuro2a cells expressing APPsw) was “increased accumulation; also recorded: up-regulated” and the “cell-free generation of NICD” value [2] was “does not significantly affect; also recorded: not affected”. The “generation of Aβ42 (Aβ42 levels in the medium, ELISA, normalized to intracellular full-length APP)” value ([3]; 50 μg/ml, 8 hrs, FIG. 4) was “reduce the generation of Aβ42”, the “Aβ42-lowering effect compared with other agents” value ([3]; CHO-APP cells) was “most effective” and the IC50 ([3]; CHO-APP cells, FIG. 12A, read-out: IC50 of Aβ42 lowering activity) was ~20 µM. For the same compound, the “preference for Aβ42 vs. Aβ40 in cell-based assay” value ([3]; FIG. 6 / FIG. 12B) was “preferentially reduced Aβ42 (vs. Aβ40); also recorded: preferentially lowers Aβ42 (vs. Aβ40); also recorded: rather selective to Aβ42; also recorded: primarily affect Aβ42 production”, the “Aβ42 in the medium, dose-response” value ([3]; dose-dependent, FIG. 5 / FIG. 12A) was “reduced Aβ42; also recorded: lower Aβ42 in a dose-dependent manner” and the “production of Aβ42 in cells” value ([3]; general statement) was “lower the production of Aβ42”. For the same compound, the “concentration at which secretion of Aβ40 was affected” value ([3]; only at very high concentration) was ~100 µM, the Aβ40 production ([3]; overnight treatment, FIG. 12B) was “slightly affected” and the Aβ42 production ([3]; overnight treatment, FIG. 12B) was “reduce Aβ42 production”. For the same compound, the Aβ42-lowering activity ([3]; summary of Tables 1-3) was “Yes”.
